What was measured:
Type in all cases: in vitro ADME
CYP2E1 = biological target: T1, CYP2E1 (Homo sapiens, UniProt P05181); experiment: Inhibition of CYP2E1 (chlorzoxazone) activity in pooled human liver microsomes; conditions: substrate chlorzoxazone 50 µM; pooled HLMs; read-out: IC50, P450 2E1
T1 construct: incubation mixtures containing pooled human liver microsomes (HLMs, XTreme 200, XenoTech); tissue XenoTech XTreme 200; host or cells: pooled human liver microsomes
Procedure: (§1) The inhibitory potential of the five biflavonoids on the metabolism of nine P450 probe substrates was evaluated using previously developed methods with minor modifications. Biflavonoids were dissolved in methanol. The final concentration of methanol in the incubation mixture was 1.0% (v/v). We used these P450 probe substrates: phenacetin for CYP1A2, coumarin for CYP2A6, bupropion for CYP2B6, amodiaquine for CYP2C8, diclofenac for CYP2C9, omeprazole for CYP2C19, dextromethorphan for CYP2D6, chlorzoxazone for CYP2E1 and midazolam for CYP3A (Table 1). The incubation mixtures containing pooled human liver microsomes (HLMs, XTreme 200, XenoTech), P450 probe substrates, and inhibitor (0~20 µM) were pre-incubated at 37 °C for 5 min. The concentration range of the inhibitor varied (0, 0.002, 0.005, 0.02, 0.05, and 0.2 µM for CYP2C8; 0, 0.02, 0.05, 0.2, 0.5, and 2 µM for CYP2C9; 0, 0.5, 2, 5, 10, and 20 µM for other P450 isoforms). After pre-incubation, a reduced nicotinamide adenine dinucleotide phosphate (NADPH) generation system containing 1 unit/ml G6PDH, 1.3 mM β- nicotinamide adenine dinucleotide phosphate (β- NADP^+), 3.3 mM MgCl2, and 3.3 mM G6P was added to initiate a reaction, and further incubated for 10 min at 37 °C. The reaction was stopped by adding 50 μL of ice-cold acetonitrile containing 7 nM trimipramine (internal standard, IS). After centrifugation at 18,000 g (5 min, 4 °C), aliquots of supernatants were analyzed by LC–MS/MS (Shimadzu LCMS 8060 system, Shimadzu, Kyoto, Japan). All microsomal incubations were conducted in triplicate.
(§2) All metabolites and the IS were separated on a Kinetex XB-C18 column (100 × 2.10 mm, 2.6 μm, 100 Å; Phenomenex, Torrance, CA, USA) and analyzed using a Shimadzu LCMS 8060 triple-quadrupole mass spectrometer coupled with a Nexera X2 ultra high-performance liquid chromatography system (Shimadzu, Kyoto, Japan) equipped with an electrospray ionization interface. The mobile phase consisted of 0.1% formic acid in water (A) and 0.1% formic acid in acetonitrile (B). The elution condition was set as 8% B (0–0.5 min), 8%→60% B (0.5–5 min), 60% B (5–6 min), 60%→8% B (6–6.1 min) and 8% B (6.1–9 min) for the analysis of metabolites of P450 probe substrates and set as 0%→40% B (0–1 min), 40%→50% B (1–5 min), 50%→0% B (5–5.1 min), and 0% B (5.1–8 min) for the analysis of metabolites of UGT probe substrates. The flow rate was 0.2 mL/min. Electrospray ionization was performed in positive-ion mode at 4000 V or in negative-ion mode at −3500 V. The optimum operating conditions were determined as follows: vaporizer temperature, 300 °C; capillary temperature, 350 °C; collision gas (argon) pressure, 1.5 mTorr. Quantitation was conducted in selected reaction monitoring (SRM) modes with the precursor-to-product ion transition for each metabolite (Table 1 and Table 2).
(§3) We analyzed the data with Shimadzu LabSolution LC–MS software. The IC50 values were calculated by WinNonlin software (Pharsight, Mountain View, CA, USA). The type of inhibition and the apparent kinetic parameters for inhibitory activity (Ki) were determined by following several criteria: visual inspection of Dixon plots, Lineweaver–Burk double reciprocal plots, and secondary plots of Lineweaver–Burk plots versus biflavonoid concentrations, the size of the sum of squares of the residuals, Akaike Information Criteria values, the S.E. and 95% confidence interval of the parameter estimates from the nonlinear regression analysis using the WinNonlin software. The models tested included competitive, competitive partial, noncompetitive, noncompetitive partial, uncompetitive, uncompetitive partial, and mixed-type inhibition.

CYP2C8 = biological target: T2, CYP2C8 (Homo sapiens, UniProt P10632); experiment: Inhibition of CYP2C8-catalyzed amodiaquine N-deethylation in pooled human liver microsomes; design: incubation mixtures containing pooled human liver microsomes (HLMs, XTreme 200, XenoTech); tissue XenoTech XTreme 200; host or cells: pooled human liver microsomes; conditions: for Ki: amodiaquine 0.1, 0.4, 1 µM, average ± standard error, triplicate; for IC50: substrate amodiaquine 1 µM, read-out: IC50, P450 2C8; for IC50 / inhibition at 10 min, 0.5 µM: pooled HLMs 0.25 mg/mL; for inhibition at 10 min, 0.5 µM: inhibitor 0.5 μM
T2 sequence (P10632 1-490): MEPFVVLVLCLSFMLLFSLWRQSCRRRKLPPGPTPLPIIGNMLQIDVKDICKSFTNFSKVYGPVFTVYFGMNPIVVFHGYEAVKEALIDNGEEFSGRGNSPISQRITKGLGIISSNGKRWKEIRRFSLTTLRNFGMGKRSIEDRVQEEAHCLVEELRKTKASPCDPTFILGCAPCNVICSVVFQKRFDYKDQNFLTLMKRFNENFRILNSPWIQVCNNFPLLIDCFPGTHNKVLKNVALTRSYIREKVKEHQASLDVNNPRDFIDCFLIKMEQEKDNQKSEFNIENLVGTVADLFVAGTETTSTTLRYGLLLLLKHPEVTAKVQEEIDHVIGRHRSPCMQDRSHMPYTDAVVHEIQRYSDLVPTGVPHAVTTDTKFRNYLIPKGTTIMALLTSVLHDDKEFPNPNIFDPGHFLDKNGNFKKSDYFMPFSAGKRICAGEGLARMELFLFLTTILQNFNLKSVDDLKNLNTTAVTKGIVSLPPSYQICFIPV
Procedure: as §1
The other conditions were the same as in the cytochrome P450 inhibition study.
We used HLMs to determine the mechanisms and constants (Ki values) for selamariscina A inhibition of CYP1A2, CYP2B6, CYP2C8, CYP2C9 and CYP3A. The selamariscina A (0~50 μM) was added into the reaction mixtures, each of which contained concentrations of phenacetin (20, 50, and 100 μM), bupropion (20, 50, and 100 μM), amodiaquine (0.1, 0.4, and 1 μM), rosiglitazone (2, 5, and 10 μM), diclofenac (1, 4, and 10 μM), tolbutamide (50, 100, and 200 μM), and midazolam (0.5, 2, and 5 μM). The substrates were used at concentrations approximately near to their respective Km values. The concentration range of selamariscina A varied (0, 0.002, 0.005, 0.02, 0.05, and 0.2 μM for CYP2C8; 0, […], 0.02, 0.05, 0.2, and 0.5 μM for CYP2C9; 0, 0.2, 0.5, 2, 5, and 20 µM for CYP3A; 0, 0.5, 2, 5, 20, and 50 μM for CYP1A2 and CYP2B6). The other conditions were the same as in the cytochrome P450 inhibition study.
as §2
We analyzed the data with Shimadzu LabSolution LC–MS software. The IC50 values were calculated by WinNonlin software (Pharsight, Mountain View, CA, USA).

CYP2D6 = biological target: T3, CYP2D6 (Homo sapiens, UniProt P10635); experiment: Inhibition of CYP2D6 (dextromethorphan) activity in pooled human liver microsomes; conditions: substrate dextromethorphan 5 µM; pooled HLMs; read-out: IC50, P450 2D6
T3 construct: incubation mixtures containing pooled human liver microsomes (HLMs, XTreme 200, XenoTech); tissue XenoTech XTreme 200; host or cells: pooled human liver microsomes
T3 sequence (P10635 whole entry): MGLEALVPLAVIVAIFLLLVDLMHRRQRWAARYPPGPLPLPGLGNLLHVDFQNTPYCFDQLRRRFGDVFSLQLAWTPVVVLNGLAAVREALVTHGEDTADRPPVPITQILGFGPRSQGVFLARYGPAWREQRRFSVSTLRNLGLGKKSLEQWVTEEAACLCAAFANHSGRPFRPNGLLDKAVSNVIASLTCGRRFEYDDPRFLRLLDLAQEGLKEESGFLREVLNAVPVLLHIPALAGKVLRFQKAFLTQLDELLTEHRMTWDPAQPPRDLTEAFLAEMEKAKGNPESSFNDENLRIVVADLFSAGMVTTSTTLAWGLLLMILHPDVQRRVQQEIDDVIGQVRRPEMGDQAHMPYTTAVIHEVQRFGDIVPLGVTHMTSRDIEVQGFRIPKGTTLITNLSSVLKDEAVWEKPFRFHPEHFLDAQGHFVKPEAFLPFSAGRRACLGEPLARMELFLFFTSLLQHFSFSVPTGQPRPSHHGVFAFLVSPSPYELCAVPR
Procedure: as §1, §2, §3

[1] = human, pooled human liver microsomes, probe amodiaquine

T1 sequence (P05181 whole entry): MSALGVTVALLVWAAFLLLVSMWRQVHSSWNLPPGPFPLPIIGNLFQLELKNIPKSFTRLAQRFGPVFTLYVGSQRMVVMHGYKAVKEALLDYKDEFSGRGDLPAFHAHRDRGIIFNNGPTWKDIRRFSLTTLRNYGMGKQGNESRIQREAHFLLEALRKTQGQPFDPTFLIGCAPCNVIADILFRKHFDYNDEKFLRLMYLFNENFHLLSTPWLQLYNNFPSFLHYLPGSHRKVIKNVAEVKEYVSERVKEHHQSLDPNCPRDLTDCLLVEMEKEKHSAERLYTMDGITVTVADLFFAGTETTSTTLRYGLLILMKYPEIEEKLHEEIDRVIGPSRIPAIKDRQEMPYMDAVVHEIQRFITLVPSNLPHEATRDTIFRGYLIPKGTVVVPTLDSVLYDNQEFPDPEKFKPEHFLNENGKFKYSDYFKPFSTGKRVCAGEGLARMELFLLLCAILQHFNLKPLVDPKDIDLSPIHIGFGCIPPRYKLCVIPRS

Compound	IC50 (CYP2E1) [nM]	Mode of Inhibition, CYP2C8 amodiaquine (CYP2C8; HLMs)	Ki (CYP2C8; HLMs) [nM]	IC50 (CYP2C8) [nM]	IC50 (CYP2D6) [nM]	Times stronger CYP2C8 inhibitory potential than amentoflavone (CYP2C8)	inhibition at 10 min, 0.5 µM (CYP2C8; [1]) [%]	Times weaker CYP2C8 inhibition than selamariscina A (CYP2C8; IC50 comparison at 0.25 mg/mL microsomal protein)	inhibition at 10 min, 5 µM (CYP2C8; human, pooled human liver microsomes, probe amodiaquine, inhibitor 5 μM, HLMs) [%]
O=C1CC(c2cc(-c3c(O)ccc4c(=O)cc(-c5ccc(O)cc5)oc34)c(O)cc2O)Oc2cc(O)cc(O)c21 (centres unmarked) [selamariscina A]	> 20000	Noncompetitive	18 ± 2	19	10600	more than 4.5 times	92.8	–	–
CC(C)(O)c1ccccc1CC[C@@H](SCC1(CC(=O)O)CC1)c1cccc(/C=C/c2ccc3ccc(Cl)cc3n2)c1 [montelukast, reference compound]	> 50000	–	–	–	> 50000	–	52.7	more than 25 times	86.1
O=c1cc(-c2ccc(O)c(-c3c(O)cc(O)c4c(=O)cc(-c5ccc(O)cc5)oc34)c2)oc2cc(O)cc(O)c12 [amentoflavone]	3300	Noncompetitive	83 ± 9	84	2600	–	–	–	–

Continued, in another order:

IC50 (CYP2E1) [nM]	Mode of Inhibition, CYP2C8 amodiaquine (CYP2C8; HLMs)	Ki (CYP2C8; HLMs) [nM]	IC50 (CYP2C8) [nM]	IC50 (CYP2D6) [nM]	Times stronger CYP2C8 inhibitory potential than amentoflavone (CYP2C8)	Compound	inhibition at 10 min, 0.5 µM (CYP2C8; [1]) [%]	Times weaker CYP2C8 inhibition than selamariscina A (CYP2C8; IC50 comparison at 0.25 mg/mL microsomal protein)	inhibition at 10 min, 5 µM (CYP2C8; human, pooled human liver microsomes, probe amodiaquine, inhibitor 5 μM, HLMs) [%]
2300	Noncompetitive	103 ± 17	83	2700	–	O=c1cc(-c2ccc(O)cc2)oc2c(-c3c(O)cc(O)c4c(=O)cc(-c5ccc(O)cc5)oc34)c(O)cc(O)c12 [cupressuflavone]	–	–	–
2900	Noncompetitive	84 ± 16	83	2200	–	O=c1cc(-c2ccc(O)c(-c3c(O)cc4oc(-c5ccc(O)cc5)cc(=O)c4c3O)c2)oc2cc(O)cc(O)c12 [robustaflavone]	–	–	–
6000	Noncompetitive	142 ± 26	120	3200	–	O=c1cc(-c2ccc(O)c(-c3c(-c4ccc(O)cc4)oc4cc(O)cc(O)c4c3=O)c2)oc2cc(O)cc(O)c12 [taiwaniaflavone]	–	–	–
